Assay results reported in PubChem BioAssay (NCI).
Several values for one entry are separate records, joined by “and”; a condition that tells them apart may be missing. Identical values can stand only once.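 96-well plates; 48 h exposure; 5 concentrations. Endpoints by linear interpolation between flanking doses. Not reached: highest tested concentration assigned. GI50: concentration for 50% inhibition of growth. The concentration for full growth arrest is given as TGI.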

Key:
Experiment in all cases: growth of human tumour cells (NCI), 48 h
MALME-3M melanoma = system: MALME-3M melanoma
SNB-75 CNS = system: SNB-75 CNS
KM12 colon = system: KM12 colon
SW-620 colon = system: SW-620 colon
OVCAR-3 ovarian = system: OVCAR-3 ovarian
PC-3 prostate = system: PC-3 prostate
786-0 renal = system: 786-0 renal
SK-OV-3 ovarian = system: SK-OV-3 ovarian
TK-10 renal = system: TK-10 renal
EKVX NSCLC = system: EKVX NSCLC

Structure (SMILES) | GI50 (MALME-3M melanoma) | TGI (MALME-3M melanoma) | GI50 (SNB-75 CNS) | TGI (SNB-75 CNS) | GI50 (KM12 colon) | TGI (KM12 colon) | TGI (SW-620 colon) | GI50 (OVCAR-3 ovarian) | TGI (OVCAR-3 ovarian) | TGI (PC-3 prostate) | GI50 (786-0 renal) | TGI (786-0 renal) | GI50 (SK-OV-3 ovarian) | TGI (SK-OV-3 ovarian) | GI50 (TK-10 renal) | TGI (TK-10 renal) | GI50 (EKVX NSCLC) | TGI (EKVX NSCLC) | GI50 (SW-620 colon) | GI50 (PC-3 prostate)
COc1ccc2nc3cccc([N+](=O)[O-])c3c(NCCCCCC(=O)O)c2c1 | 0.0437 µM | 0.194 µM | 0.282 µM | 1.57 µM | 0.0262 µM | 0.22 µM | 0.268 µM | 0.12 µM | 2.64 µM | 1.36 µM | 0.0799 µM | 0.548 µM | 0.915 µM | 5.41 µM | 1.72 µM | 17.6 µM | 0.297 µM | 1.97 µM |  | 
COc1cc(NC(C)CCCNC2CN3CCC2CC3)c2ncccc2c1 (stereo not given) | 10 µM | 24.3 µM | 7.07 µM | 20.6 µM | 14.6 µM | 29.1 µM | 27.6 µM | 3.22 µM | 11.4 µM | 35.1 µM | 13.4 µM | 27.1 µM | 15.2 µM | 28.5 µM | 16.6 µM | 31 µM | 12.1 µM | 26.7 µM | 11.9 µM | 12.5 µM
COc1cnc2c(c1)C(=O)c1c-2n(CCCn2ccnc2)c(=O)c2cc(F)ccc12 | 0.193 µM | 0.619 µM | 0.187 µM | 21.8 µM | 0.0589 µM | 1.57 µM | 1.01 µM | 0.0437 µM | 0.382 µM | > 100 µM | 0.0131 µM | 0.0563 µM | 0.0162 µM | 0.327 µM |  |  | 0.167 µM | > 100 µM | 0.0221 µM | 0.0576 µM
COc1ccc(-c2c[nH]c(C(=O)O)c2-c2cc(OC)c(OC)c(OC)c2)cc1 | 4.37 µM | > 100 µM |  |  | 4.59 µM | > 100 µM | > 100 µM | 2.74 µM | 8.05 µM | > 100 µM | 6.63 µM | > 100 µM | 5.82 µM | > 100 µM | > 100 µM | > 100 µM | 5.86 µM | > 100 µM | 3.94 µM | 4.46 µM
COc1cc(/C=C/C(=O)c2cccc(Nc3nc(Nc4ccccc4)nc(Nc4ccccc4)n3)c2)cc(OC)c1OC | 18.2 µM | 79.3 µM | 16 µM | > 100 µM | 3.71 µM | > 87.9 µM | > 100 µM | 4.49 µM | 56 µM | > 100 µM | 7.66 µM | 43.2 µM | 43.1 µM | > 100 µM | 63.9 µM | > 100 µM | 9.94 µM | > 100 µM | 3.73 µM | 2.19 µM
COc1cc(C[C@H]2c3cc(OC)c(OC)cc3CCN2C)c(Oc2cc3c(cc2OC)-c2c(OC)c(OC)cc4c2[C@H](C3)N(C)CC4)cc1OC | 5.39 µM | 17 µM and 10.2 µM | 9.19 µM | 15.3 µM and 24.3 µM | 13.3 µM | 20.4 µM and 26.7 µM | 22.6 µM and 32.5 µM | 11.8 µM | 23.6 µM and 24.8 µM | 33.7 µM | 8.97 µM | 14.1 µM and 21.9 µM | 15.1 µM and 21.1 µM | 40 µM and 36.2 µM | 15.7 µM | 12.9 µM and 29.2 µM | 17.6 µM | 34.6 µM and 32.7 µM | 13.3 µM | 
FC(F)(F)c1ccc(Nc2nc(-c3c(C(F)(F)F)nc4ccccn34)cs2)cc1 | 0.064 µM | 4.63 µM | 0.0291 µM | 1.05 µM | 0.0393 µM | 4.23 µM | 12.3 µM | 0.0264 µM | 0.0787 µM | 8.54 µM | 0.0398 µM | 2.22 µM | 0.0491 µM | 5.03 µM | 0.917 µM | 8.12 µM | 0.158 µM | 7.84 µM | 0.0373 µM | 0.0425 µM
COC(=O)C1(C)CCC(c2ccc(C)cc2)=C(CC(=O)O)C1 (stereo not given) |  | > 100 µM |  | > 100 µM |  |  | > 100 µM |  | > 100 µM | > 100 µM |  | > 100 µM |  | > 100 µM |  | > 100 µM |  | > 100 µM |  | 
COc1c(C)c2c(c(O)c1C/C=C(\C)CCC(=O)O)C(=O)OC2 | 0.714 µM | > 100 µM | 0.938 µM | > 100 µM | 0.374 µM | > 100 µM | > 100 µM | 0.286 µM | > 100 µM | > 100 µM | 0.326 µM | > 100 µM | 0.571 µM | > 100 µM | 1.68 µM | > 100 µM | 0.892 µM | > 100 µM | 0.167 µM | 0.61 µM
C=C1C(=O)O[C@H]2[C@H]1CC/C(COC(=O)NCc1cn(C)c3ccccc13)=C\CC[C@@]1(C)O[C@@H]21 | 1.92 µM | 3.64 µM | 4.16 µM | 17.6 µM | 2.88 µM | 7.67 µM | 1.98 µM | 1.03 µM | 2.3 µM | 4.79 µM | 0.685 µM | 2.04 µM |  |  | 1.8 µM | 3.43 µM | 1.85 µM | 4.32 µM | 0.524 µM | 1.76 µM
CCN(CC)CCCC(C)Nc1ccnc2cc(Oc3ccccc3)ccc12 (stereo not given) | 6.03 µM and 2.29 µM | 12.3 µM and 4.47 µM | 2.04 µM and 10.9 µM | 15.1 µM and 25.4 µM | 8.52 µM and 10.6 µM | 24.3 µM and > 100 µM | 14.3 µM and 25.9 µM | 13.7 µM and 22 µM | 34.2 µM and > 100 µM | 35.5 µM and > 100 µM | 4.53 µM and 5.09 µM | 11.6 µM and 17.4 µM | 15.7 µM and 22.9 µM | 32.2 µM and 78.9 µM | 2.58 µM and 3.23 µM | 8.34 µM and 10.3 µM | 14.1 µM and 18.6 µM | 31.8 µM and 98.7 µM | 3.36 µM and 5.53 µM | 8.89 µM and 19.3 µM
C=C(C)C(=O)Nc1ccc(NC(C)C)cc1 | > 100 µM | > 100 µM | > 100 µM | > 100 µM | > 100 µM | > 100 µM | > 100 µM | > 100 µM | > 100 µM | > 100 µM | > 100 µM | > 100 µM | > 100 µM | > 100 µM | > 100 µM | > 100 µM | > 100 µM | > 100 µM | > 100 µM | > 100 µM
Cc1ccc(S(=O)(=O)N/N=C/c2c(O)ccc3ccccc23)cc1 |  | 77.4 µM |  | 74.3 µM |  | 44.9 µM | > 100 µM |  | 44.2 µM | 58.6 µM |  | > 100 µM |  | 84.6 µM |  | > 100 µM |  | > 100 µM |  | 
